Reference: patent publication US9480695B2, “Methods for inducing orexin neurons and agent for treating narcolepsy or eating disorder” (THE UNIVERSITY OF TOKYO, priority 2011, dated 2016)

Tests used:
[1] = test system: orexin gene-expressing cells (orexin neuron) in the lateral hypothalamic area; experiment: Increase in orexin neuron in vivo, in situ hybridization of lateral hypothalamic area of old mouse; details: old mouse C57BL/6 male, 5 mg/ml in drinking water, 8 weeks from 53- to 61-week-old, versus non-administration old mouse; FIG. 12
Experimental: ManNAc was dissolved in drinking water, and the drinking water with a concentration of 5 mg/ml was administered to old mouse (C57BL/6, male) by allowing free access to water for 8 weeks in total from 53-week-old to 61-week-old. After completion of the administration, the aforementioned mouse was immediately perfusion fixed and subjected to in situ hybridization method. As a control group, ManNAc non-administration old mouse (61-week-old at the time point of fixing) and young mouse (10-week-old at the time point of fixing) were used.
Each three mice of ManNAc administration and control groups were anesthetized with Nembutal, and perfusion fixed with formamide fixative (Genostaff). The brain was removed, embedded in paraffin, and 6 μm-thick sections were prepared in the sagittal section direction. […]
was cloned into a […] vector (Promega) and, using the plasmid as a template and DIG RNA Labeling Mix (Roche), a digoxygenin-labeled RNA probe was produced. […] The cells that expressed orexin gene were counted and the average of three animals and the standard error were determined.

[2] = test system: human iPS cell strain 201B7; experiment: Hcrt expression with ManNAc plus Sirt inhibitor and Ogt inhibitor, neural differentiation from human iPS cell, RT-PCR; type: cell-based; details: ManNAc 1.0 mM from 0th day, EX-527 50 nM and/or BADGP 5 mM on 14th day, collected 20th day; FIG. 10
Experimental: A human iPS cell strain 201B7 (HSP0001) was obtained from Riken BioResource Center via National BioResource Project (MEXT, Japan). The human iPS cell was maintained on a feeder layer of a mitomycin C-treated STO/Neo resistant/LIF (SNL) feeder cell in a primate ES medium (ReproCELL) complemented with 5 ng/mL recombinant human bFGF (Wako). The human iPS cell was co-cultured with PA6 for 20 days, for differentiation induction into a nerve with a SIDA and BMP4 system. From 7th day, 5 nM BMP4 was complemented. A detailed protocol of differentiation induction into a nerve cell is shown in the lower column of FIG. 11. From the initiation of differentiation culturing (0th day), ManNAc was added to a neural differentiation medium so that the concentration became 1.0 mM, and on 7th, 10th and 14th days of differentiation culturing, the medium was exchanged. In addition, from 7th day of differentiation culturing, 5 nM recombinant human BMP4 (Wako) was added. On 14th day of differentiation culturing, EX-527 (SIGMA-ALDRICH) was added to a neural differentiation medium so that the concentration became 50 nM, or BADGP (SIGMA-ALDRICH) was added to a neural differentiation medium so that the concentration became 5 mM, and on 20th day of differentiation culturing, cells were collected and subjected to RT-PCR. The conditions of RT-PCR are the same as those of Example 1.

[3] = test system: human iPS cell strain 201B7; experiment: Orexin-positive cells in neurally differentiated colony induced from human iPS cell, immunostaining; type: cell-based; details: differentiation as in Example 5; anti-human orexin antibody fluorescence
Experimental: Cells which had been differentiation-induced on a 4-well culture plate by the method described in Example 5 were fixed with a 4% paraformalin solution, and cellular membrane permeability treatment was performed with a 0.2% Triton-X100 solution. The cells were treated with a 5% bovine serum albumin solution, followed by treatment with a primary antibody (anti-human orexin antibody, anti-human tubulin III antibody) at 4° C. overnight. After a reaction with a secondary labeled antibody (Alex-Fluor 488-labeled donkey anti-goat antibody, Alexa-Fluor 594-labeled rabbit anti-mouse antibody), a nuclear DNA was stained with DAPI.

[4] = test system: Mouse ES cells (J1 strain); experiment: Hcrt expression with ManNAc plus Sirt inhibitor or Ogt inhibitor, neural differentiation from mouse ES cell, RT-PCR; type: cell-based; details: ManNAc 1.0 mM from 0th day, BADGP 1 mM or 5 mM on 7th day, collected 10th day; FIG. 9
Experimental: According to the same manner as that described in Example 1, mouse ES cells (J1 strain) were cultured for 10 days for differentiation induction into a nerve cell. A protocol of inducing differentiation into a nerve cell is shown in the upper column of FIG. 11. From the initiation of differentiation culturing (0th day), ManNAc was added to a neural differentiation medium so that the concentration became 1.0 mM, and the medium was exchanged on 4th and 7th days of differentiation culturing. In addition, from 4th day of differentiation culturing, 5 nM recombinant human BMP4 (Wako) was added. On 7th day of differentiation culturing, EX-527 (SIGMA-ALDRICH) was added to a neural differentiation medium so that the concentration became 50 nM or BADGP (SIGMA-ALDRICH) was added to a neural differentiation medium so that the concentration became 1 or 5 mM, and on 10th day of differentiation culturing, cells were collected and subjected to RT-PCR. The conditions of RT-PCR are the same as those of Example 1.

## CC(=O)N[C@@H]1C(O)O[C@H](CO)[C@@H](O)[C@@H]1O (stereo partly drawn) [ManNAc, N-acetyl-D-mannosamine]
[1]
  number of orexin gene-expressing cells (orexin neuron) in the lateral hypothalamic area: orexin neuron increased
[2]
  Expression of an orexin gene (Hcrt): recognized in a ManNAc-added section and an EX-527-added section to the same extent
[3]
  ratio of orexin-positive cells in a neurally differentiated colony: 4.9%
[4]
  Expression of an orexin gene (Hcrt): expression of Hcrt which had been recognized in a ManNAc-added section
